The values below come from patent US11090288B2, “Pyrazole derivatives and their uses thereof” (Canadian Blood Services, priority 2013, dated 2021).

For one assay, the system named is monocytes (phagocytosis of anti-D opsonized RBCs). Put plainly: Monocyte monolayer assay (MMA), phagocytosis of anti-D opsonized RBCs. The class given is cell-based. The note with it: Monocyte; percent inhibition of phagocytosis of anti-D opsonized RBCs by monocytes; compound at 5 micromolar. As for the experimental part: Monocyte monolayer assay. The monocyte monolayer assay (MMA) was performed as previously described (Rampersad, G. C.; Suck, G; Sakac, D; Fahim, S; Foo, A; Denomme, G. A.; Langler, R. F.; Branch, D. R. Transfusion 2005, 45, 384; Foo, A. H.; Fletcher, S. P.; Langler, R. F.; Porter, C. H.; Branch, D. R. Transfusion 2007, 47, 290; Branch, D. R.; Gallagher, M. T.; Mison, A. P.; Sy Siok Hian, A. L.; Petz, L. D. Br. J. Haematol. 1984, 56, 19; Gallagher, M. T.; Branch, D. R.; Mison, A.; Petz, L. D. Exp. Hematol. 1983, 11, 82) in the above 4 references with slight modification. Briefly, peripheral blood mononuclear cells (PBMC) containing monocytes were isolated by ficoll-paque density gradient centrifugation and incubated overnight at 37° C. under 5% CO2 atmosphere. PBMCs were then layered onto chamber slides (Labtek, Thermo Scienctific) and incubated at 37° C., 5% CO2 for 1 hr to allow the monocytes to adhere. Following an aspiration of non-adherent cells, compounds were added at various concentrations to the adhered cells and further incubated for an additional hour. The compounds were aspirated and the monocytes treated with anti-D opsonized RBCs at the aforementioned incubation conditions for an additional 2 hrs. The slides were analyzed under phase microscopy for phagocytosis. A minimum of 100 monocytes were counted per sample and the number of observed RBCs that were phagocytosed were counted and normalized to a positive control to generate a phagocytosis index. Percent inhibition of phagocytosis was calculated as the percentage of control phagocytosis (phagocytosis of opsonized RBCs with compound diluent only).
`Cc1cc(CCc2cc(C)nn2-c2ccccc2)n(-c2ccccc2)n1` [Compound 14, 1,2-Bis(3-methyl-1-phenyl-1H-pyrazol-5-yl)ethane]: the inhibition at 5 µM is not above 16%.

`Cc1cc(O)n(Cc2cc(C)nn2-c2ccccc2)n1` [Compound 50, 3-methyl-1-((3-methyl-1-phenyl-1H-pyrazol-5-yl)methyl)-1H-pyrazol-5-ol] returned an inhibition at 5 µM of 27 to 58%. As to `Cc1cc(CNCc2cc(C)nn2-c2ccccc2)n(-c2ccccc2)n1` [Compound 18, Bis((3-methyl-1-phenyl-1H-pyrazol-5-yl)methyl)amine], the inhibition at 5 µM amounted to 20%. In turn, `Cc1cc(OCc2cc(C)nn2-c2ccccc2)n(CC2CCCCC2)n1` [Compound 37, 1-(Cyclohexylmethyl)-3-methyl-5-((3-methyl-1-phenyl-1H-pyrazol-5-yl)methoxy)-1H-pyrazole] displayed an inhibition at 5 µM of 33 to 45%. With `Cc1cc(Oc2c(N)c(C)nn2-c2ccccc2)n(-c2ccccc2)n1` [Compound 24, 3-Methyl-5-(3-methyl-1-phenyl-1H-pyrazol-5-yloxy)-1-phenyl-1H-pyrazol-4-amine], at 5 µM the inhibition was 2%. Compound `Cc1cc(OCc2cc(C)nn2-c2ccccc2)n(CCN)n1` [Compound 47, 2-(3-Methyl-5-((3-methyl-1-phenyl-1H-pyrazol-5-yl)methoxy)-1H-pyrazol-1-yl)ethanamine] gave an inhibition at 5 µM of 5 to 33%.

`Cc1cc(COc2cc(C)nn2C2CCCC2)n(-c2ccccc2)n1` [Compound 41, 1-Cyclopentyl-3-methyl-5-((3-methyl-1-phenyl-1H-pyrazol-5-yl)methoxy)-1H-pyrazole] gave an inhibition at 5 µM not above 17%.

`Cc1cc(OCC2CCCN2Cc2ccccc2)n(-c2ccccc2)n1` (stereo not shown) [Compound 53, 5-((1-Benzylpyrrolidin-2-yl)methoxy)-3-methyl-1-phenyl-1H-pyrazole] showed an inhibition at 5 µM of 5 to 15%. Consider `Cc1cc(OCc2cc(C)nn2-c2ccccc2)n(CC(=O)O)n1` [Compound 48, 2-(3-Methyl-5-((3-methyl-1-phenyl-1H-pyrazol-5-yl)methoxy)-1H-pyrazol-1-yl)acetic acid], for which the inhibition at 5 µM fell in the range of 4 to 10%.

Turning to `Cc1cc(COc2cc(C)nn2-c2ccc([N+](=O)[O-])cc2)n(-c2ccccc2)n1` [Compound 28, 3-Methyl-5-({[3-methyl-1-(4-nitrophenyl)-1H-pyrazol-5-yl]oxy}methyl)-1-phenyl-1H-pyrazole], the inhibition at 5 µM was in the range of 2 to 16%.

`Cc1cc(Oc2c([N+](=O)[O-])c(C)nn2-c2ccccc2)n(-c2ccccc2)n1` [Compound 23, 3-Methyl-5-(3-methyl-1-phenyl-1H-pyrazol-5-yloxy)-4-nitro-1-phenyl-1H-pyrazole]: the inhibition at 5 µM was 12%. The compound `Cc1cc(OCCOc2cc(C)nn2-c2ccccc2)n(-c2ccccc2)n1` [Compound 20, 1,2-Bis(3-methyl-1-phenyl-1H-pyrazol-5-yloxy)ethane] gave an inhibition at 5 µM of 4 to 14%.

Compound `Cc1cc(COc2cc(C)nn2-c2ccccc2)n(-c2ccccc2)n1` [Compound 15, 3-Methyl-5-((3-methyl-1-phenyl-1H-pyrazol-5-yl)methoxy)-1-phenyl-1H-pyrazole] yielded an inhibition at 5 µM not above 14%.

Still in this assay, the particulars now being: percent inhibition of phagocytosis of anti-D opsonized RBCs by monocytes; compound at 5 micromolar.
For the compound `Cc1cc(OCc2cc(C)nn2-c2ccccc2)[nH]n1` [Compound 49], the “Activity @ 5 micromolar (%)” value is 6-26%.

The test system of the next assay is preventive mouse model of ITP (anti-platelet antibody, rat anti-mouse CD41). Put plainly: Preventive mouse model of ITP, compound given subcutaneously. The class given is in vivo, Mice. To be noted: SC twice per day (2 sites, 2 mg/ml) starting at Day 0; anti-CD41 1.4 μg daily; FIG. 2. How it is done: Mice were treated as above with an anti-platelet antibody (rat anti-mouse CD41 using 1.4 μg constant dose) daily starting at Day 0 to induce ITP. Compound 50 was given SC twice per day (2 sites, 2 mg/ml) starting at Day 0. IVIg (1 g/kg) was given on Day 2 for comparison as this is considered the therapeutic dose of IVIg. Treatment groups: n=5 mice per group; control (untreated): n=3. Statistical significance by one-way ANOVA with Dunnett posthoc test and is indicated: ** p<0.01; *** p<0.001.
Turning to `Cc1cc(O)n(Cc2cc(C)nn2-c2ccccc2)n1` [Compound 50, 3-methyl-1-((3-methyl-1-phenyl-1H-pyrazol-5-yl)methyl)-1H-pyrazol-5-ol], the “Amelioration of ITP” value is reported as “efficacious for the amelioration of ITP”.

A further assay shares this test system. Briefly: Preventive mouse model of ITP, compound given IP or IV. To be noted: i.p. (40 mg/kg) or i.v. (16 mg/kg); anti-CD41 1.4 μg daily from Day 0; FIG. 1. The class given is in vivo, Mice (BALB/c). How it is done:
Mice (BALB/c) were treated with an anti-platelet antibody (rat anti-mouse CD41 using 1.4 μg constant dose) daily starting at Day 0 to induce ITP. Platelet counts at Day 2, when a nadir is reached in this model, are shown for untreated mice, mice treated with anti-CD41 only, mice treated with IVIG (1 g/kg) (positive control for ITP amelioration), and mice treated with Compound 50 i.p. (40 mg/kg) or i.v. (16 mg/kg). Treatment groups: n=5 mice per group; control: n=3. Statistical significance by one-way ANOVA with Dunnett posthoc test and is indicated: ** p<0.01; *** p<0.001.
In the case of `Cc1cc(O)n(Cc2cc(C)nn2-c2ccccc2)n1` [Compound 50, 3-methyl-1-((3-methyl-1-phenyl-1H-pyrazol-5-yl)methyl)-1H-pyrazol-5-ol], the “Amelioration of ITP (platelet counts at Day 2)” value is reported as “ameliorates ITP”.

As usually defined, the inhibition is the percentage by which the read-out fell short of the control. Read a low inhibition as a response near the control.
